Where a name gives a salt, the structure may show the parent alone. Read-outs that look alike come from different tables or passages of the source.
Legend:
Format in all cases: cell-based
[1] = test system: RH7777 rat hepatoma cells; assay: SRB cytotoxicity assay, RH7777 control cell line; details: read-out: IC50 RH7777
Protocol: (§1) For in vitro cytotoxicity screening, 1000 to 5000 cells were plated into each well of 96-well plates depending on growth rate, and exposed to different concentrations of a test compound for 96 h in three to five replicates. All the compounds were dissolved in dimethyl sulfoxide at 5 to 20 mM, and diluted to desired concentrations in complete culture medium. Cell numbers at the end of the drug treatment were measured by the SRB assay (Gududuru et al., “Synthesis and Biological Evaluation of Novel Cytotoxic Phospholipids for Prostate Cancer,” Bioorg. Med. Chem. Lett. 14:4919-4923 (2004); Rubinstein et at., “Comparison of in vitro Anticancer-Drug-Screening Data Generated with a Tetrazolium Assay Versus a Protein Assay Against a Diverse Panel of Human Tumor Cell Lines,” J. Naatl, Cancer Inst. 82:1113-1118 (1990), each of which is hereby incorporated by reference in its entirety). Briefly, the cells were fixed with 10% of trichloroacetic acid, stained with 0.4% SRB, and the absorbances at 540 nm was measured using a plate reader (DYNEX Technologies, Chantilly, Va.).
(§2) The antiproliferative activity of all the synthesized compounds was evaluated against five human prostate cancer cell lines and in RH7777 cells (negative control) using the sulforhodamine B (SRB) assay (see description in Example 5 above).
(§3) The chosen cell lines represent different basal levels of active AKT and LPL receptor expression (discussed later). Cells were exposed to a wide range of concentrations (0 to 100 μM) of the indicated compound for 96 h. Cell numbers at the end of treatment were measured using the sulforhodamine B (SRB) assay^5.
(§4) Cells were exposed to a wide range of concentrations (0 to 100 μM) of the particular compound for 96 h in 96 well plates. Cells were fixed with 10% trichloroacetic acid, washed five times with water. The plates were air dried overnight and fixed cells were stained with SRB solution. The cellular protein-bound SRB was measured at 540 nm using a plate reader. Cell numbers at the end of the treatment were measured.
as §4, with “96-well” for “96 well”, “calculated as a percentage of untreated control.” for “measured.”

[2] = test system: DU-145 human prostate cancer cells; assay: SRB cytotoxicity assay, DU-145
Protocol: as §1, §2, §3, §4
as §4, with “96-well” for “96 well”, “calculated as a percentage of untreated control.” for “measured.”

[3] = test system: PC-3 human prostate cancer cells; assay: SRB cytotoxicity assay, PC-3; details: read-out: IC50 PC-3
Protocol: as §1, §2, §3, §4
as §4, with “96-well” for “96 well”, “calculated as a percentage of untreated control.” for “measured.”

[4] = test system: LNCaP human prostate cancer cells; assay: SRB cytotoxicity assay, LNCaP; details: read-out: IC50 LNCaP
Protocol: as §1, §2, §3, §4
as §4, with “96-well” for “96 well”, “calculated as a percentage of untreated control.” for “measured.”

[5] = test system: PPC-1 human prostate cancer cells; assay: SRB cytotoxicity assay, PPC-1; details: read-out: IC50 PPC-1
Protocol: (§5) Dr. Mitchell Steiner at University of Tennessee Health Science Center, kindly provided PPG-1 and TSU-PrI cells.
as §1, §2, §3, §4
as §4, with “96-well” for “96 well”, “calculated as a percentage of untreated control.” for “measured.”

[6] = test system: TSU-Pr1 human prostate cancer cells; assay: SRB cytotoxicity assay, TSU-Pr1
Protocol: as §5, §1, §2, §3, §4
as §4, with “96-well” for “96 well”, “calculated as a percentage of untreated control.” for “measured.”

[7] = test system: human breast cancer cell line (MCF-7); assay: SRB cytotoxicity assay, MCF-7; details: read-out: IC50 MCF-7
Protocol: as §1
In vitro cytotoxicity assay was performed by the same sulforhodamine B (SRB) assay (described above). The compounds shown in Table 8 below where tested for activity against the breast cancer and ovarian cancer cell lines.
as §3, §4

[8] = Rattus norvegicus, RH7777, Table 4, control cell line, 96 h
[9] = Homo sapiens, DU-145, read-out: IC50 DU-145, Table 4, 96 h
[10] = Homo sapiens, LNCaP, Table 4, 96 h
[11] = Homo sapiens, PPC-1, Table 4, 96 h
[12] = Homo sapiens, TSU-Pr1, Table 4, 96 h, read-out: IC50 TSU-Pr1
[13] = Homo sapiens, MCF7, Table 8, breast cancer cell line
[14] = Rattus norvegicus, RH7777, Example 11 table, 96 h
[15] = Homo sapiens, DU-145, Example 11 table, 96 h, read-out: IC50 DU145
[16] = Homo sapiens, Example 11 table, 96 h
[17] = Homo sapiens, LNCaP, Example 11 table, 96 h
[18] = Homo sapiens, PPC-1, Example 11 table, 96 h
[19] = Homo sapiens, TSU-Pr1, Example 11 table, 96 h, read-out: IC50 TSU-Pr1
[20] = Homo sapiens, MCF7, Example 11 table, 96 h

For CCCCCCCCCCCCCCCCCCNC(=O)[C@@H]1CSC(c2ccc(-c3ccccc3)cc2)N1 (mixture of isomers) [Compound 27-HCI, (2RS, 4R)-2-Biphenyl-4-yl-thiazolidine-4-carboxylic acid octadecylamide Hydrochloride], the IC50 [1, 8] was > 20 µM, the IC50 [2, 9] was > 20 µM and the IC50 ([3]; Homo sapiens, Table 4, 96 h) was > 20 µM. The IC50 [4, 10] was > 20 µM, the IC50 [5, 11] was > 20 µM and the IC50 [6, 12] was > 20 µM. For the same molecule, the IC50 [7, 13] was > 20 µM.

With CCCCCCCCCCCCC1N[C@H](C(=O)O)CS1 (stereo partly drawn) the IC50 [1, 14] was > 20 µM, the IC50 [2, 15] was ~20 µM and the IC50 [3, 16] was ~20 µM. It also gave an IC50 [4, 17] of 16.1 µM, an IC50 [5, 18] of 12.6 µM and an IC50 [6, 19] of ~20 µM. For the same molecule, the IC50 [7, 20] was 16.3 µM.

O=C(O)[C@@H]1CSC(c2cc(F)cc(F)c2)N1 (stereo partly drawn) was tested, and the IC50 [1, 14] was > 100 µM, the IC50 [2, 15] was > 100 µM and the IC50 [3, 16] was > 100 µM. The IC50 [4, 17] was > 100 µM, the IC50 [5, 18] was > 100 µM and the IC50 [6, 19] was > 100 µM. The IC50 [7, 20] was > 100 µM.

For O=C(O)[C@@H]1CSC(c2ccc(-c3ccccc3)cc2)N1 (stereo partly drawn), the IC50 [1, 14] was > 100 µM, the IC50 [2, 15] was > 100 µM and the IC50 [3, 16] was > 100 µM. The IC50 [4, 17] was 71 µM, the IC50 [5, 18] was > 100 µM and the IC50 [6, 19] was ~100 µM. For the same molecule, the IC50 [7, 20] was > 100 µM.

In the case of CCCCCCCCCCCCCCCCCCNC[C@H](CO)NC [drawing 51], the IC50 [1, 14] is reported as > 100 µM, the IC50 [2, 15] is reported as > 100 µM and the IC50 [3, 16] is reported as > 100 µM. The IC50 [4, 17] was > 100 µM, the IC50 [5, 18] was > 100 µM and the IC50 [6, 19] was > 100 µM. The IC50 [7, 20] was > 100 µM.

CCCCCCCCCCCCCCCCCCNCC(CO)NC (stereo not drawn) [compound 318] showed an IC50 ([4]; Table 9, 96 h) of 3.3 µM.

In the case of CCCCCCCCCCCCCCCCCCNC(=O)[C@@H]1CSC(c2ccc(C#N)cc2)N1 (mixture of isomers) [Compound 22, (2RS, 4R)-2-(4-Cyano-phenyl)-thiazolidine-4-carboxylic acid octadccylamide], the IC50 ([1]; Table 4, control cell line, 96 h) is reported as > 20 µM and the IC50 ([3]; Table 4, 96 h) is reported as > 20 µM.

CCCCCCCCCCCCCCCCCCNC(=O)[C@@H]1CSC(c2c(Cl)cccc2Cl)N1 (mixture of isomers) [Compound 24, (2RS, 4R)-2-(2,6-Dichloro-phenyl)-thiazolidine-4-carboxylic acid octadecylamide] was tested, and the IC50 [1, 8] was > 20 µM, the IC50 [2, 9] was > 20 µM and the IC50 ([3]; Homo sapiens, Table 4, 96 h) was > 20 µM. The IC50 [4, 10] was 13.1 µM, the IC50 [5, 11] was 17.1 µM and the IC50 [6, 12] was ~20 µM. The IC50 [7, 13] was 17.7 µM.

With CCCCCCCCCCCCCCCCCCCCNCC(CO)NC (stereo not drawn) [S3] the IC50 ([4]; Example 10 table, 96 h) was 3.3 µM and the IC50 ([7]; Example 10 table, 96 h) was 2.9 µM.

For COc1ccc(CCNC(=O)CN2C(=O)CSC2c2ccccc2)c(OC)c1 (stereo not drawn) [Compound 78], the IC50 ([1]; Table 6, control cell line) was > 100 µM, the IC50 ([2]; read-out: IC50 DU-145, Table 6) was > 100 µM and the IC50 ([3]; Table 6) was > 100 µM. For the same molecule, the IC50 ([4]; Table 6) was > 100 µM, the IC50 ([5]; Table 6) was > 100 µM and the IC50 ([6]; Table 6, read-out: IC50 TSU-Pr1) was > 100 µM.

O=c1[nH]cc(F)c(=O)[nH]1 [5-FU, 5-fluorouracil, reference compound] gave an IC50 ([4]; Homo sapiens, LNCaP, Example 10 table, 96 h) of 4.9 µM and an IC50 ([4]; Homo sapiens, LNCaP, Table 6) of 4.9 µM.

For CCCCCCCCCCCCCCCCCCNCCN1C(=O)CSC1c1ccccc1 (stereo not drawn) [Compound 79, 3-(2-(octadecylamino)ethyl)-2-phenylthiazolidin-4-one], the IC50 ([1]; Rattus norvegicus, RH7777, Table 7, control cell line) was > 20 µM, the IC50 ([2]; Homo sapiens, DU-145, read-out: IC50 DU-145, Table 7) was 15.8 µM and the IC50 ([3]; Homo sapiens, Table 7) was > 20 µM. The IC50 ([4]; Homo sapiens, LNCaP, Table 7) was > 20 µM, the IC50 ([5]; Homo sapiens, PPC-1, Table 7) was 12 µM and the IC50 ([6]; Homo sapiens, TSU-Pr1, Table 7, read-out: IC50 TSU) was 6.1 µM.

With CCCCCCCCCCCCCCCCCCNC(=O)[C@@H]1CSC(c2ccc(OC)cc2)N1 (mixture of isomers) [Compound 15-HCI, (2RS, 4R)-2-(4-Methoxy-phenyl)-thiazolidine-4-carboxylic acid octadecylamide Hydrochloride] the IC50 ([1]; Rattus norvegicus, RH7777, Table 3, control cell line, 96 h) was > 20 µM, the IC50 ([2]; Homo sapiens, DU-145, read-out: IC50 DU-145, Table 3, 96 h) was 8.7 µM and the IC50 ([3]; Homo sapiens, Table 3, 96 h) was ~20 µM. The IC50 ([4]; Homo sapiens, LNCaP, Table 3, 96 h) was 2.1 µM, the IC50 ([5]; Homo sapiens, PPC-1, Table 3, 96 h) was 1.5 µM and the IC50 [7, 13] was 16.3 µM.

In the case of CCCCCCCCCCCCCCCCCCCNC(=O)[C@@H]1CSC(c2ccccc2)N1 (mixture of isomers) [Compound 6-HCI, (2RS, 4R)-2-Phenylthiazolidine-4-carboxylic acid nonadecylamide Hydrochloride], the IC50 ([2]; read-out: IC50 DU-145, Table 3, 96 h) is reported as > 20 µM, the IC50 ([4]; Table 3, 96 h) is reported as 13.6 µM and the IC50 ([5]; Table 3, 96 h) is reported as 16.8 µM. The IC50 ([6]; Table 3, 96 h, read-out: IC50 TSU-Pr1) was > 20 µM and the IC50 ([7]; Table 8, breast cancer cell line) was > 20 µM.

CCCCCCCCCCCCCCCCCCNC[C@@H](N)CO [drawing 52] gave an IC50 [4, 17] of 3.3 µM and an IC50 [7, 20] of 2.9 µM.

CCCCCCCCCCCCCCCCCCNC(=O)[C@@H]1CSC(c2cccc(O)c2)N1 (mixture of isomers) [Compound 14, (2RS, 4R)-2-(3-Hydroxy-phenyl)-thiazolidine-4-carboxylic add octadecylamide] gave an IC50 ([1]; Table 3, control cell line, 96 h) of 31 µM.

— patent US20060014740A1 (priority 2003, published 2006)
